Laboratory results taken from patent publication US20170305883A1, “Compositions and Methods for Inhibiting BMP” (THE BRIGHAM AND WOMEN'S HOSPITAL, INC., priority 2014, published 2017).

Molecular target: PKC-η (Homo sapiens, UniProt P24723)
Test: Kinome profiling
Assay type: biochemical
Conditions: 100 nM, read-out: Inhibitory activity
Description: The kinome-wide selectivity was determined following the methods previously reported by Mohedas et al., ACS Chem Biol 2013, 8, 1291-1302 and […] et al., PLoS One 2013, 8, e62721.

Sequence of PKC-η (P24723 whole entry): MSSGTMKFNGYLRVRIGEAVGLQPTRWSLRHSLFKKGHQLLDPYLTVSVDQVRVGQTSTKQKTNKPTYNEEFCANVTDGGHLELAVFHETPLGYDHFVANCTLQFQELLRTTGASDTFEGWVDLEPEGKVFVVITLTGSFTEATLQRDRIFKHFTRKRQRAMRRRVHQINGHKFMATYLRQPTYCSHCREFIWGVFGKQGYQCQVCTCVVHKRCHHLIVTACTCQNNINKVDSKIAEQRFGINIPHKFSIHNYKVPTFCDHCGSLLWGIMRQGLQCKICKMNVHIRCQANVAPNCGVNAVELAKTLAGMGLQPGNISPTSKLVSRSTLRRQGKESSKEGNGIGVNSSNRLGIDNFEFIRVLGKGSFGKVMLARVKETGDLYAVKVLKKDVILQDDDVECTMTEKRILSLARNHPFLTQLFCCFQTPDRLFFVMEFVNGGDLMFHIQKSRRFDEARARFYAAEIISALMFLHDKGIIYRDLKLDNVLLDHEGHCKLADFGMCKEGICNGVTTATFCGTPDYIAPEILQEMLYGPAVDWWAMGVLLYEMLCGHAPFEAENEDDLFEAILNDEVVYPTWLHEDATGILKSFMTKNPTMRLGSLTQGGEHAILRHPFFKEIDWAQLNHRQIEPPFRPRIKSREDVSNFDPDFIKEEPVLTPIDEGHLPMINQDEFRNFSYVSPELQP

inhibition at 0.1 µM [%] | Structure (SMILES)
5 | COc1cc(-c2cc(-c3ccc(N4CCNCC4)cc3)cnc2N)cc(OC)c1OC [Compound 15, 5-(4-(piperazin-1-yl)phenyl)-3-(3,4,5-trimethoxyphenyl)pyridin-2-amine]

Molecular target: T1, ALK2 (Homo sapiens, UniProt Q04771, Q207D)
T1 construct: His tag (N, cleaved yes); made in house; host or cells: Sf9 insect cells (baculovirus)
T1 sequence (Q04771 201-499 Q207D): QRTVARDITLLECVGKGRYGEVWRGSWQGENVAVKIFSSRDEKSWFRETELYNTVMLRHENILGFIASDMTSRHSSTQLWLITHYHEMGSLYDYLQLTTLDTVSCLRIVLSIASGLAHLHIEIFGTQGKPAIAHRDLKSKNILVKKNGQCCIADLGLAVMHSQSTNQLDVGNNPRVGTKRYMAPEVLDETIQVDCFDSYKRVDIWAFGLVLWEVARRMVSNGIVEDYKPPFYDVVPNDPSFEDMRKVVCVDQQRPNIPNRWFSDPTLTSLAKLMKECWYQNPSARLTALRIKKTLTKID
Test: Thermal shift kinase assay
Assay type: binding
Conditions: ALK2 ΔTm minus ALK5 ΔTm
Description: Thermal melting experiments were performed using a Real Time PCR machine Mx3005p (Stratagene) with a protein concentration of 1-2 μM and 10 μM inhibitor as described by Niesen et al., Nat Protoc 2007, 2, 2212-21. Recombinant human kinases for DSF screening were prepared by SGC using the published methods of […] et al., PLoS One 2013, 8, e62721. The potency and selectivity of certain compounds of the invention based on thermal shift kinase and ligand induced transcriptional activity assays are shown in Table 2.

Structure (SMILES) | ΔTm Diff. [°C]
COc1cc(-c2cc(-c3ccc(N4CCNCC4)cc3)cnc2C)cc(OC)c1OC [Compound 10, 1-(4-(6-methyl-5-(3,4,5-trimethoxyphenyl)pyridin-3-yl)phenyl)piperazine] | 4.0
COc1cc(-c2cc(-c3ccc(O)cc3)cnc2N)cc(OC)c1OC [Compound 11, 4-(6-Amino-5-(3,4,5-trimethoxyphenyl)pyridin-3-yl)phenol] | 1.5
COc1cc(-c2cnc(N)c(-c3cc(OC)c(OC)c(OC)c3)c2)ccc1O [Compound 12, 4-(6-amino-5-(3,4,5-trimethoxyphenyl)pyridin-3-yl)-2-methoxyphenol] | 1.7
COc1cc(-c2cc(-c3cccc(NS(C)(=O)=O)c3)cnc2N)cc(OC)c1OC [Compound 13, N-(3-(6-amino-5-(3,4,5-trimethoxyphenyl)pyridin-3-yl)phenyl)methanesulfonamide] | 0.9
COc1cc(-c2cc(-c3cccc(N4CCNCC4)c3)cnc2N)cc(OC)c1OC [Compound 14, 5-(3-(piperazin-1-yl)phenyl)-3-(3,4,5-trimethoxyphenyl)pyridin-2-amine] | 0.8
COc1cc(-c2cc(-c3ccc(N4CCNCC4)cc3)cnc2N)cc(OC)c1OC [Compound 15, 5-(4-(piperazin-1-yl)phenyl)-3-(3,4,5-trimethoxyphenyl)pyridin-2-amine] | 1.2
COc1ccc(-c2cc(-c3ccc(N4CCNCC4)cc3)cnc2N)cc1OC [Compound 16, 3-(3,4-dimethoxyphenyl)-5-(4-(piperazin-1-yl)phenyl)pyridin-2-amine] | 4.3
COc1cc(OC)cc(-c2cc(-c3ccc(N4CCNCC4)cc3)cnc2N)c1 [Compound 17, 3-(3,5-dimethoxyphenyl)-5-(4-(piperazin-1-yl)phenyl)pyridin-2-amine] | 3.5
COc1cccc(-c2cc(-c3ccc(N4CCNCC4)cc3)cnc2N)c1 [Compound 18, 3-(3-methoxyphenyl)-5-(4-(piperazin-1-yl)phenyl)pyridin-2-amine] | 3.8
Nc1ncc(-c2ccc(N3CCNCC3)cc2)cc1-c1ccc2c(c1)OCCO2 [Compound 19, 3-(2,3-dihydrobenzo[b][1,4]dioxin-6-yl)-5-(4-(piperazin-1-yl)phenyl)pyridin-2-amine] | 4.0
COc1cc(-c2cc(-c3ccc(N4CCNCC4)cc3)cnc2N(C)C)cc(OC)c1OC [Compound 25, N,N-dimethyl-5-(4-(piperazin-1-yl)phenyl)-3-(3,4,5-trimethoxyphenyl)pyridin-2-amine] | 0.1
COc1cc(-c2cc(-c3ccc(N4CCNCC4)cc3)cnc2Cl)cc(OC)c1OC [Compound 27, 1-(4-(6-chloro-5-(3,4,5-trimethoxyphenyl)pyridin-3-yl)phenyl)piperazine] | 3.8
COc1cc(-c2cc(-c3ccc(N4CCNCC4)cc3)cnc2OC)cc(OC)c1OC [Compound 28, 1-(4-(6-methoxy-5-(3,4,5-trimethoxyphenyl)pyridin-3-yl)phenyl)piperazine] | 0.1
COc1cc(OC)cc(-c2cncc(-c3ccc(N4CCNCC4)cc3)c2)c1 [Compound 33, 1-(4-(5-(3,5-dimethoxyphenyl)pyridin-3-yl)phenyl)piperazine] | 4.7

Results, then the compound that gave them:

ΔTm Diff. [°C] | Structure (SMILES)
4.5 | COc1ccc(-c2cc(-c3ccc(N4CCNCC4)cc3)cnc2N)cc1 [Compound 20, 3-(4-methoxyphenyl)-5-(4-(piperazin-1-yl)phenyl)pyridin-2-amine]
1.0 | CC(C)Oc1cccc(-c2cc(-c3ccc(N4CCNCC4)cc3)cnc2N)c1 [Compound 21, 3-(3-isopropoxyphenyl)-5-(4-(piperazin-1-yl)phenyl)pyridin-2-amine]
2.7 | COc1cc(-c2cc(-c3ccc(N4CCNCC4)cc3)cnc2N)ccc1Cl [Compound 22, 3-(4-chloro-3-methoxyphenyl)-5-(4-(piperazin-1-yl)phenyl)pyridin-2-amine]
3.8 | COc1cc(-c2cc(-c3ccc(N4CCNCC4)cc3)cnc2N)ccc1C [Compound 23, 3-(3-methoxy-4-methylphenyl)-5-(4-(piperazin-1-yl)phenyl)pyridin-2-amine]
−0.5 | CNc1ncc(-c2ccc(N3CCNCC3)cc2)cc1-c1cc(OC)c(OC)c(OC)c1 [Compound 24, N-methyl-5-(4-(piperazin-1-yl)phenyl)-3-(3,4,5-trimethoxyphenyl)pyridin-2-amine]
3.7 | COc1cc(-c2cncc(-c3ccc(N4CCNCC4)cc3)c2)cc(OC)c1OC [Compound 26, 1-(4-(5-(3,4,5-trimethoxyphenyl)pyridin-3-yl)phenyl)piperazine]
3.4 | Nc1ncc(-c2ccc(N3CCNCC3)cc2)cc1-c1ccnc2ccccc12 [Compound 29]
2.5 | Nc1ncc(-c2cccc(N3CCNCC3)c2)cc1-c1ccnc2ccccc12 [Compound 30, 5-(3-(piperazin-1-yl)phenyl)-3-(quinolin-4-yl)pyridin-2-amine]
4.2 | Nc1ncc(-c2ccc(N3CCNCC3)cc2)cc1-c1cccc2ncccc12 [Compound 31, 5-(4-(piperazin-1-yl)phenyl)-3-(quinolin-5-yl)pyridin-2-amine]
2.6 | COc1cc(-c2cnn3cc(-c4ccc(N5CCNCC5)cc4)cnc23)cc(OC)c1OC [Compound 32, 3-(3,4,5-trimethoxyphenyl)-6-[4-(1-piperazinyl)phenyl]pyrazolo[1,5-a]pyrimidine]
2.0 | COc1cc(-c2cc(-c3cccc(O)c3)cnc2N)cc(OC)c1OC [Compound K02288, 3-(6-Amino-5-(3,4,5-trimethoxyphenyl)pyridin-3-yl)phenol, reference compound]
